From patent US8835445B2, “Dihydrofolate reductase inhibitors” (Trius Therapeutics, Inc., priority 2010, dated 2014)
Converted amounts (≈) assume the structure as drawn. Read-outs that look alike come from different tables or passages of the source.

Tests used:
S. aureus = assay: Antibacterial activity (MIC), whole-cell bacterial growth inhibition; format: cell-based, Staphylococcus aureus; conditions: for MIC: Staphylococcus aureus
Source text: Antibacterial activity as measured by the minimal inhibitory concentrations (MIC) and minimal bactericidal concentrations of compounds are well known (see., e.g., National Committee for Clinical Laboratory Standards 2000 Performance standards for antimicrobial disk susceptibility tests: approved standard, 7th ed. M2-A7, vol. 20, no. 1, Committee for Clinical Laboratory Standards, Wayne, Pa.) In vitro testing for antibacterial activity may be accomplished through use of a whole-cell bacterial growth inhibition assay. For example, an […] assay identifies a substance that inhibits bacterial growth. Microtiter plates are prepared with serial dilutions of the test compound, adding to the preparation a given amount of growth substrate, and providing a preparation of bacteria. Inhibition of bacterial growth is determined, for example, by observing changes in optical densities of the bacterial cultures. Inhibition of bacterial growth is determined, for example, by comparing (in the presence and absence of a test compound) the rate of growth or the absolute growth of bacterial cells. Inhibition includes a reduction of one of the above measurements by at least 20%.

human DHFR = human DHFR (Homo sapiens (Human), UniProt P00374); assay: DHFR enzymatic inhibition (Ki), human DHFR; format: biochemical
Sequence of human DHFR (P00374 whole entry): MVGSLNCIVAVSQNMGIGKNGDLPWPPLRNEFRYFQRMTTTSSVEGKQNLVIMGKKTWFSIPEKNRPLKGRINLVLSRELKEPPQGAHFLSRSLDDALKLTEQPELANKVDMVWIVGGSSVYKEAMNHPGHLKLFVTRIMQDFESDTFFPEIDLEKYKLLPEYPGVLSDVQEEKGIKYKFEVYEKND

S. aurues DHFR = S. aurues DHFR (Staphylococcus aureus, UniProt P0A017); assay: biochemical; format: biochemical
[1] = S. aureus in 20% serum, read-out: MIC in μg/ml S. aureus in 20% serum
[2] = S. aureus, read-out: MIC in μg/ml S. aureus

COCCn1c(-c2ccc3c(N)nc(N)nc3c2)nc2cc(C)c(C)cc21 [Compound 14, 7-(1-(2-methoxyethyl)-5,6-dimethyl-1H-benzo[d]-imidazol-2-yl)quinazoline-2,4-diamine]
MIC (S. aureus; [1]): 4 µg/mL (≈ 11 µM)
MIC (S. aureus; [2]): 4 µg/mL (≈ 11 µM)
Ki (human DHFR): 263 nM
Ki (S. aurues DHFR; S. aureus DHFR): 1.6 nM

Cc1cc2nc(-c3nccs3)n(-c3cc4nc(N)nc(N)c4cc3Cl)c2cc1C [Compound 34, 6-chloro-7-(5,6-dimethyl-2-(thiazol-2-yl)-1H-benzo[d]imidazol-1-yl)quinazoline-2,4-diamine]
MIC in μg/ml S. aureus (S. aureus; S. aureus): ≦0.125 μg/ml
MIC in μg/ml S. aureus in 20% serum (S. aureus; S. aureus in 20% serum): 2 µg/mL (≈ 4.74 µM)
Ki (human DHFR): 8.8 nM
Ki (S. aurues DHFR; S. aureus DHFR): 0.016 nM

Cc1cc2c(N)nc(N)nc2cc1-c1c[nH]c2ccccc12 [Compound 41, 7-(1H-indol-3-yl)-6-methylquinazoline-2,4-diamine]
MIC (S. aureus; [1]): 0.5 µg/mL (≈ 1.73 µM)
MIC (S. aureus; [2]): 0.25 µg/mL (≈ 0.864 µM)
Ki (human DHFR): 50.5 nM
Ki (S. aurues DHFR; S. aureus DHFR): 0.11 nM

Cc1ccc2c(c1)nc(-c1cccs1)n2-c1ccc2c(N)nc(N)nc2c1 [Compound 36]
MIC (S. aureus; [1]): 1 µg/mL (≈ 2.68 µM)
MIC (S. aureus; [2]): 1 µg/mL (≈ 2.68 µM)
Ki (human DHFR): 314 nM
Ki (S. aurues DHFR; S. aureus DHFR): 0.005 nM

Cc1cc2nc(-c3ccccn3)n(-c3ccc4c(N)nc(N)nc4c3)c2cc1C [Compound 16, 7-(5,6-dimethyl-2-(pyridin-2-yl)-1H-benzo[d]-imidazol-1-yl)quinazoline-2,4-diamine]
MIC (S. aureus; [1]): 0.25 µg/mL (≈ 0.655 µM)
MIC (S. aureus; [2]): ≤ 0.125 µg/mL
Ki (human DHFR): 572 nM
Ki (S. aurues DHFR; S. aureus DHFR): 0.022 nM

COc1ccc2nc(SCCC(C)(F)F)n(-c3ccc4c(N)nc(N)nc4c3)c2c1 [Compound 20, 7-(2-(3,3-difluorobutylthio)-6-methoxy-1H-benzo-[d]imidazol-1-yl)quinazoline-2,4-diamine]
MIC (S. aureus; [1]): 4 µg/mL (≈ 9.29 µM)
MIC (S. aureus; [2]): 0.5 µg/mL (≈ 1.16 µM)
Ki (human DHFR): 586 nM
Ki (S. aurues DHFR; S. aureus DHFR): 0.12 nM

COc1ccc2nc(-c3ccco3)n(-c3ccc4c(N)nc(N)nc4c3)c2n1 [Compound 37]
MIC (S. aureus; [1]): 0.5 µg/mL (≈ 1.34 µM)
MIC (S. aureus; [2]): 0.25 µg/mL (≈ 0.67 µM)
Ki (human DHFR): 797 nM
Ki (S. aurues DHFR; S. aureus DHFR): 0.039 nM

CCOc1ccc(C(=O)N(CC)CC)cc1-c1cc2nc(N)nc(N)c2cc1C [Compound 40, 3-(2,4-diamino-6-methylquinazolin-7-yl)-4-ethoxy-N,N-diethylbenzamide]
MIC (S. aureus; [1]): 0.25 µg/mL (≈ 0.635 µM)
MIC (S. aureus; [2]): 0.25 µg/mL (≈ 0.635 µM)
Ki (human DHFR): 34 nM
Ki (S. aurues DHFR; S. aureus DHFR): 0.025 nM

COc1ccccc1-c1ccc2c(N)nc(N)nc2c1 [Compound 1, 7-(2-methoxyphenyl)quinazoline-2,4-diamine]
MIC (S. aureus; [1]): 4 µg/mL (≈ 15 µM)
MIC (S. aureus; [2]): 2 µg/mL (≈ 7.51 µM)
Ki (human DHFR): 1140 nM
Ki (S. aurues DHFR): 2.7 nM

Cc1cc2nc(N3CCOCC3)n(-c3ccc4c(N)nc(N)nc4c3)c2cc1C [Compound 19, 7-(5,6-dimethyl-2-morpholino-1H-benzo[d]-imidazol-1-yl)quinazoline-2,4-diamine]
MIC (S. aureus; [1]): 4 µg/mL (≈ 10.3 µM)
MIC (S. aureus; [2]): 1 µg/mL (≈ 2.57 µM)
Ki (human DHFR): 1090 nM
Ki (S. aurues DHFR; S. aureus DHFR): 0.6 nM

Cc1c(C(=O)OC(C)(C)C)nc(-c2cccs2)n1-c1ccc2c(N)nc(N)nc2c1 [Compound 39, tert-butyl 1-(2,4-diaminoquinazolin-7-yl)-5-methyl-2-thiophen-2-yl)-1H-imidazole-4-carboxylate]
MIC (S. aureus; [1]): 2 µg/mL (≈ 4.73 µM)
MIC (S. aureus; [2]): 1 µg/mL (≈ 2.37 µM)

Cc1cc2nc(-c3nccs3)n(-c3cc4nc(N)nc(N)c4cc3Cl)c2cc1C [Compound 25, 6-chloro-7-(5,6-dimethyl-2-(thiazol-2-yl)-1H-benzo[d]imidazol-1-yl)quinazoline-2,4-diamine]
MIC (S. aureus; [1]): 1 µg/mL (≈ 2.37 µM)
MIC (S. aureus; [2]): ≤ 0.125 µg/mL
Ki (human DHFR): 7.6 nM
Ki (S. aurues DHFR; S. aureus DHFR): 0.011 nM

CCOc1ccc2ccccc2c1-c1cc2nc(N)nc(N)c2cc1C [Compound 31, 7-(2-ethoxynaphthalen-1-yl)-6-methylquinazoline-2,4-diamine]
MIC (S. aureus; [1]): 0.5 µg/mL (≈ 1.45 µM)
MIC (S. aureus; [2]): ≤ 0.125 µg/mL
Ki (human DHFR): 4.5 nM
Ki (S. aurues DHFR; S. aureus DHFR): 0.026 nM

COc1ncc(-c2cc3nc(N)nc(N)c3cc2C)c(OC)n1 [Compound 29, 7-(2,4-dimethoxypyrimidin-5-yl)-6-methylquinazo-line-2,4-diamine]
MIC (S. aureus; [1]): 0.5 µg/mL (≈ 1.6 µM)
MIC (S. aureus; [2]): 0.5 µg/mL (≈ 1.6 µM)
Ki (human DHFR): 54.7 nM
Ki (S. aurues DHFR; S. aureus DHFR): 0.4 nM

COc1ccc(-c2cc3nc(N)nc(N)c3cc2Cn2ccnc2)cc1OC [Compound 10, 6-((1H-imidazol-1-yl)methyl)-7-(3,4-dimethoxyphenyl)quinazoline-2,4-diamine]
MIC (S. aureus; [1]): 2 µg/mL (≈ 5.31 µM)
MIC (S. aureus; [2]): 8 µg/mL (≈ 21.3 µM)
Ki (human DHFR): 53.6 nM
Ki (S. aurues DHFR; S. aureus DHFR): 0.51 nM

Cc1cc2c(N)nc(N)nc2cc1-c1cccc2[nH]ccc12 [Compound 9, 7-(1H-indol-4-yl)-6-methylquinazoline-2,4-diamine]
MIC (S. aureus; [1]): 1 µg/mL (≈ 3.46 µM)
MIC (S. aureus; [2]): 0.25 µg/mL (≈ 0.864 µM)
Ki (human DHFR): 245 nM
Ki (S. aurues DHFR; S. aureus DHFR): 0.61 nM

CC(=O)c1cccc(-c2ccc3c(N)nc(N)nc3c2)c1 [Compound 6, 1-(3-(2,4-diaminoquinazolin-7-yl)-phenyl)ethanone]
MIC (S. aureus; [1]): 8 µg/mL (≈ 28.7 µM)
MIC (S. aureus; [2]): 4 µg/mL (≈ 14.4 µM)
Ki (human DHFR): 323 nM
Ki (S. aurues DHFR; S. aureus DHFR): 4.4 nM

CC(=O)c1cccc(-c2cc3nc(N)nc(N)c3cc2C)c1 [Compound 7, 1-(3-(2,4-diamino-6-methylquinazolin-7-yl)-phenyl)ethanone]
MIC (S. aureus; [1]): 1 µg/mL (≈ 3.42 µM)
MIC (S. aureus; [2]): 0.5 µg/mL (≈ 1.71 µM)
Ki (human DHFR): 26.3 nM
Ki (S. aurues DHFR; S. aureus DHFR): 0.48 nM

Cc1cc2nc(-c3nccs3)n(-c3cc4nc(N)nc(N)c4cc3C)c2cc1C [Compound 26, 7-(5,6-dimethyl-2-(thiazol-2-yl)-1H-benzo[d]-imidazol-1-yl)-6-methylquin-azoline-2,4-diamine]
MIC (S. aureus; [1]): ≤ 0.125 µg/mL
MIC (S. aureus; [2]): ≤ 0.125 µg/mL
Ki (human DHFR): 2.9 nM
Ki (S. aurues DHFR): 0.03 nM

COc1ccc(OC)c(-c2cc3nc(N)nc(N)c3cc2C)c1 [Compound 8, 7-(2,5-dimethoxyphenyl)-6-methylquin-azoline-2,4-diamine]
MIC (S. aureus; [1]): 1 µg/mL (≈ 3.22 µM)
MIC (S. aureus; [2]): 1 µg/mL (≈ 3.22 µM)
Ki (human DHFR): 27.5 nM
Ki (S. aurues DHFR): 0.66 nM

COc1cnc(Cl)cc1-c1cc2nc(N)nc(N)c2cc1C [Compound 38, 7-(2-chloro-5-methyloxypyridin-4-yl)-6-methylquinazoline-2,4-diamine]
MIC (S. aureus; [1]): 1 µg/mL (≈ 3.17 µM)
MIC (S. aureus; [2]): 1 µg/mL (≈ 3.17 µM)
Ki (human DHFR): 52.4 nM
Ki (S. aurues DHFR; S. aureus DHFR): 1.4 nM

CCOc1ccc(-c2cccc(NS(C)(=O)=O)c2)cc1-c1ccc2c(N)nc(N)nc2c1 [Compound 30, N-(3′-(2,4-diaminoquinoazlin-7-yl)-4′-ethoxybiphenyl-3-yl)methanesulfonamide]
MIC (S. aureus; [1]): 2 µg/mL (≈ 4.45 µM)
MIC (S. aureus; [2]): ≤ 0.5 µg/mL
Ki (human DHFR): 5.8 nM
Ki (S. aurues DHFR; S. aureus DHFR): 0.02 nM

COc1cc(-c2cc3nc(N)nc(N)c3cc2C)cc(OC)c1OC [Compound 33, 6-methyl-7-(3,4,5-trimethoxyphenyl) quinazoline-2,4-diamine]
MIC (S. aureus; [1]): 1 µg/mL (≈ 2.94 µM)
MIC (S. aureus; [2]): ≤ 0.5 µg/mL
Ki (human DHFR): 47.1 nM
Ki (S. aurues DHFR; S. aureus DHFR): 0.91 nM

Cc1cc2nc(-c3nccs3)n(-c3ccc4c(N)nc(N)nc4c3)c2cc1C [Compound 22, 7-[5,6-dimethyl-2-(thiazol-2-yl)-1H-benzo[d]-imidazol-1-yl]quinazoline-2,4-diamine]
MIC (S. aureus; [1]): ≤ 0.125 µg/mL
MIC (S. aureus; [2]): ≤ 0.125 µg/mL
Ki (human DHFR): 93.5 nM
Ki (S. aurues DHFR; S. aureus DHFR): 0.002 nM

Cc1cc2nc(C3CC3)n(-c3ccc4c(N)nc(N)nc4c3)c2cc1C [Compound 15, 7-(2-cyclopropyl-5,6-dimethyl-1H-benzo[d]-imidazol-1-yl)quinazoline-2,4-diamine]
MIC (S. aureus; [1]): 1 µg/mL (≈ 2.9 µM)
MIC (S. aureus; [2]): ≤ 0.5 µg/mL
Ki (human DHFR): 1160 nM
Ki (S. aurues DHFR; S. aureus DHFR): 0.14 nM

Cc1cc2c(N)nc(N)nc2cc1-c1ccc(N)cc1 [Compound 5, 7-(4-aminophenyl)-6-methylquinazoline-2,4-diamine]
MIC (S. aureus; [1]): 1 µg/mL (≈ 3.77 µM)
MIC (S. aureus; [2]): 1 µg/mL (≈ 3.77 µM)
Ki (human DHFR): 138 nM
Ki (S. aurues DHFR; S. aureus DHFR): 0.89 nM
